In ChEMBL document CHEMBL1201862, “PubChem BioAssay data set” (2004):
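In this assay, cells in 96-well plates receive the compound at five concentrations for 48 hours. Endpoints are linearly interpolated between the surrounding concentrations. GI50 = concentration required for 50% inhibition of growth.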 The source made the active and inactive calls. Rule as the data show it: active = GI50 up to about 1.1 µM and inactive = higher.

Assays:
Experiment in all cases: DTP human tumour cell line panel, 48 h
CCRF-CEM = tested on: CCRF-CEM
EKVX = tested on: EKVX
SNB-75 = tested on: SNB-75
Malme-3M = tested on: Malme-3M
K562 = tested on: K562
HCT-15 = tested on: HCT-15
SK-MEL-2 = tested on: SK-MEL-2
SK-MEL-5 = tested on: SK-MEL-5
SN12C = tested on: SN12C
KM12 = tested on: KM12
NCI-H460 = tested on: NCI-H460
NCI-H522 = tested on: NCI-H522
OVCAR-5 = tested on: OVCAR-5
HL-60 = tested on: HL-60
RXF 393 = tested on: RXF 393
SF-539 = tested on: SF-539

| SMILES | GI50 (CCRF-CEM) | GI50 (EKVX) | GI50 (SNB-75) | GI50 (Malme-3M) | GI50 (K562) | GI50 (HCT-15) [µM] | GI50 (SK-MEL-2) | GI50 (SK-MEL-5) | GI50 (SN12C) | GI50 (KM12) | GI50 (NCI-H460) | GI50 (NCI-H522) | GI50 (OVCAR-5) | GI50 (HL-60) | GI50 (RXF 393) | GI50 (SF-539) |
| --- | --- | --- | --- | --- | --- | --- | --- | --- | --- | --- | --- | --- | --- | --- | --- | --- |
| COc1ccc(C[C@@H]2Cc3cc(OC)c(OC)cc3CN2C)cc1 | > 100 µM (inactive) | > 100 µM (inactive) | > 100 µM (inactive) | > 100 µM (inactive) | > 100 µM (inactive) | > 100 | > 100 µM (inactive) | > 100 µM (inactive) | > 100 µM (inactive) | > 100 µM (inactive) | > 100 µM (inactive) | > 100 µM (inactive) | > 100 µM (inactive) | – | – | – |
| CCOc1ccc(/N=N/c2ccc3oc(=O)c(/C(C)=N/NC(=O)CC(=O)Nc4cccc(OC)c4)cc3c2)cc1 | 3.16 µM (inactive) | 19.4 µM (inactive) | – | 16.8 µM (inactive) | 7.96 µM (inactive) | 30.3 | 20.8 µM (inactive) | 20.2 µM (inactive) | 15.6 µM (inactive) | 20.8 µM (inactive) | 20 µM (inactive) | 21.4 µM (inactive) | > 46.6 µM (inactive) | 3.64 µM (inactive) | 17.3 µM (inactive) | 17.2 µM (inactive) |
| CCOP(=O)(Cc1ccc(CP(=O)(OCC)OCC)n1C)OCC | > 100 µM (inactive) | > 100 µM (inactive) | > 100 µM (inactive) | > 100 µM (inactive) | > 100 µM (inactive) | > 100 | > 100 µM (inactive) | > 100 µM (inactive) | > 100 µM (inactive) | > 100 µM (inactive) | > 100 µM (inactive) | > 100 µM (inactive) | > 100 µM (inactive) | > 100 µM (inactive) | > 100 µM (inactive) | > 100 µM (inactive) |
| Cc1ccc(C2=CC(=O)c3ccccc3C2=O)n1-c1ccccc1 | 23 µM (inactive) | > 100 µM (inactive) | > 100 µM (inactive) | – | 53 µM (inactive) | – | – | > 100 µM (inactive) | > 100 µM (inactive) | 43.1 µM (inactive) | 48 µM (inactive) | > 100 µM (inactive) | – | 32.8 µM (inactive) | > 100 µM (inactive) | 89.9 µM (inactive) |
| CN(C)c1ccc2c(NCCCCCCNc3ccnc4cc(N(C)C)ccc34)ccnc2c1 | 12.7 µM (inactive) | 36.1 µM (inactive) | – | 2.85 µM (inactive) | 2.74 µM (inactive) | > 100 | 20.2 µM (inactive) | 12.2 µM (inactive) | 6.79 µM (inactive) | 8.26 µM (inactive) | 6.75 µM (inactive) | 6.75 µM (inactive) | 25.2 µM (inactive) | 6.7 µM (inactive) | 16 µM (inactive) | 21.5 µM (inactive) |
| COC(=O)/C(C#N)=C1\CCC(C(=O)OC)N1C (stereo not given) | > 100 µM (inactive) | > 100 µM (inactive) | > 100 µM (inactive) | – | > 100 µM (inactive) | > 100 | > 100 µM (inactive) | > 100 µM (inactive) | > 100 µM (inactive) | > 100 µM (inactive) | > 100 µM (inactive) | > 100 µM (inactive) | – | > 100 µM (inactive) | > 100 µM (inactive) | > 100 µM (inactive) |
| O=c1c2cc(Br)ccc2nc(-c2ccccc2Cl)n1NCC1(O)OCC(O)C(O)C1O (stereo not given) | 46.7 µM (inactive) | > 100 µM (inactive) | > 100 µM (inactive) | > 100 µM (inactive) | > 100 µM (inactive) | > 100 | > 100 µM (inactive) | > 100 µM (inactive) | > 100 µM (inactive) | > 100 µM (inactive) | > 100 µM (inactive) | > 100 µM (inactive) | > 100 µM (inactive) | 33.6 µM (inactive) | > 100 µM (inactive) | – |
| COc1c(C(=O)c2ccc([N+](=O)[O-])cc2)cc(C(C)(C)C)cc1C(C)(C)C | 26.7 µM (inactive) | 47.4 µM (inactive) | 74.5 µM (inactive) | 26.5 µM (inactive) | 25.6 µM (inactive) | 32 | 13.4 µM (inactive) | 15.6 µM (inactive) | 39 µM (inactive) | 16.9 µM (inactive) | 32.4 µM (inactive) | 21.5 µM (inactive) | 13.4 µM (inactive) | 13.9 µM (inactive) | 17.1 µM (inactive) | 64.4 µM (inactive) |
| COc1cc2ccn3c4cc(OC)c(OC)cc4cc3c2cc1OC | > 100 µM (inactive) | 98.2 µM (inactive) | > 100 µM (inactive) | > 100 µM (inactive) | > 100 µM (inactive) | – | > 100 µM (inactive) | – | > 100 µM (inactive) | > 100 µM (inactive) | > 100 µM (inactive) | 11.3 µM (inactive) | > 100 µM (inactive) | 4.83 µM (inactive) | – | – |
| CCCCC1(C)C=C/C(=C2/C(=O)O/C(=C\C(=O)O)C2=O)O1 (stereo not given) | > 100 µM (inactive) | > 100 µM (inactive) | > 100 µM (inactive) | > 100 µM (inactive) | > 100 µM (inactive) | > 100 | > 100 µM (inactive) | > 100 µM (inactive) | > 100 µM (inactive) | > 100 µM (inactive) | > 100 µM (inactive) | – | > 100 µM (inactive) | > 100 µM (inactive) | – | > 100 µM (inactive) |
| O=[N+]([O-])c1cccc(C2ON2C2CCCCC2)c1 (stereo not given) | 4.88 µM (inactive) | 44 µM (inactive) | 38.5 µM (inactive) | 22.8 µM (inactive) | 14.4 µM (inactive) | 16.9 | 25.5 µM (inactive) | 17.7 µM (inactive) | 18.3 µM (inactive) | 8.81 µM (inactive) | 17.5 µM (inactive) | 17.4 µM (inactive) | > 100 µM (inactive) | 17.5 µM (inactive) | – | 22.5 µM (inactive) |
| CCOC(=O)/C(C#N)=C\C=C1/C=CN=C2NCCN21 | > 100 µM (inactive) | > 100 µM (inactive) | 14.4 µM (inactive) | > 100 µM (inactive) | > 100 µM (inactive) | > 100 | > 100 µM (inactive) | > 100 µM (inactive) | > 100 µM (inactive) | > 100 µM (inactive) | > 100 µM (inactive) | > 100 µM (inactive) | – | > 100 µM (inactive) | 99.5 µM (inactive) | > 100 µM (inactive) |
| Cc1cccc(C)c1CO | > 100 µM (inactive) | > 100 µM (inactive) | > 100 µM (inactive) | > 100 µM (inactive) | > 100 µM (inactive) | > 100 | > 100 µM (inactive) | – | > 100 µM (inactive) | > 100 µM (inactive) | > 100 µM (inactive) | > 100 µM (inactive) | > 100 µM (inactive) | > 100 µM (inactive) | > 100 µM (inactive) | > 100 µM (inactive) |
| OCc1c[te]c(-c2ccccc2)c1 | 17.5 µM (inactive) | 99.8 µM (inactive) | 44.5 µM (inactive) | > 100 µM (inactive) | 38.5 µM (inactive) | 20.2 | 25.8 µM (inactive) | 30.7 µM (inactive) | 16 µM (inactive) | 80.5 µM (inactive) | 31 µM (inactive) | – | > 100 µM (inactive) | 12.6 µM (inactive) | 42.2 µM (inactive) | 28.4 µM (inactive) |
| C(=N\Nc1ccccc1)/c1nc2ccccc2nc1/C=N/Nc1ccccc1 | 23.6 µM (inactive) | 22.1 µM (inactive) | 12.2 µM (inactive) | 24.9 µM (inactive) | 7.6 µM (inactive) | 4.39 | 18.2 µM (inactive) | 19 µM (inactive) | 16.2 µM (inactive) | 13 µM (inactive) | 13.9 µM (inactive) | 16.5 µM (inactive) | 27 µM (inactive) | 31 µM (inactive) | 16.3 µM (inactive) | 14.8 µM (inactive) |
| Cc1cc2c(cc1C)NC(=O)C(NC(=O)/C=C/c1ccccc1)C=N2 (stereo not given) | 3.56 µM (inactive) | > 100 µM (inactive) | 44.1 µM (inactive) | 35.9 µM (inactive) | 22.5 µM (inactive) | 17.7 | 24.5 µM (inactive) | 29.9 µM (inactive) | 38.8 µM (inactive) | 19.5 µM (inactive) | 30.8 µM (inactive) | 16.3 µM (inactive) | > 100 µM (inactive) | 21.9 µM (inactive) | 16.1 µM (inactive) | 24.8 µM (inactive) |
| COc1cc(C2C(C(=O)Nc3ccccc3)=C(C)NC(C)=C2C(=O)Nc2ccccc2)ccc1O | – | 83.4 µM (inactive) | 13.6 µM (inactive) | 41.2 µM (inactive) | 30.6 µM (inactive) | 43.5 | 28.6 µM (inactive) | – | 39.5 µM (inactive) | 31 µM (inactive) | 43.7 µM (inactive) | > 10 µM (inactive) | > 100 µM (inactive) | 22.4 µM (inactive) | > 100 µM (inactive) | 21.6 µM (inactive) |
| O=C1C=CC(=O)c2cc(Sc3ccccc3)c(=O)c(Sc3ccccc3)cc21 | 17.3 µM (inactive) | > 100 µM (inactive) | 85.3 µM (inactive) | – | 28.1 µM (inactive) | 50.6 | > 100 µM (inactive) | > 100 µM (inactive) | > 100 µM (inactive) | > 100 µM (inactive) | > 100 µM (inactive) | 12.4 µM (inactive) | – | 10.6 µM (inactive) | 14 µM (inactive) | > 100 µM (inactive) |
| CN(C)c1ccc(-c2cc(O)c3cc4c(cc3n2)OCO4)cc1 | > 100 µM (inactive) | > 100 µM (inactive) | 4.33 µM (inactive) | > 100 µM (inactive) | > 100 µM (inactive) | > 100 | > 100 µM (inactive) | > 100 µM (inactive) | > 100 µM (inactive) | – | > 100 µM (inactive) | – | – | > 100 µM (inactive) | > 100 µM (inactive) | > 100 µM (inactive) |
